# Test results published in ChEMBL document CHEMBL1137109, “Structure-based virtual screening and biological evaluation of potent and selective ADAM12 inhibitors” (Bioorg Med Chem Lett, 2004).
# What was measured:
# [1] = biological target: T1, Disintegrin and metalloproteinase domain-containing protein 12 (Homo sapiens, UniProt O43184); experiment: Inhibition of A disintegrin and metalloprotease domain 12 (ADAM12) binding in cell based assay
# T1 sequence (O43184 whole entry): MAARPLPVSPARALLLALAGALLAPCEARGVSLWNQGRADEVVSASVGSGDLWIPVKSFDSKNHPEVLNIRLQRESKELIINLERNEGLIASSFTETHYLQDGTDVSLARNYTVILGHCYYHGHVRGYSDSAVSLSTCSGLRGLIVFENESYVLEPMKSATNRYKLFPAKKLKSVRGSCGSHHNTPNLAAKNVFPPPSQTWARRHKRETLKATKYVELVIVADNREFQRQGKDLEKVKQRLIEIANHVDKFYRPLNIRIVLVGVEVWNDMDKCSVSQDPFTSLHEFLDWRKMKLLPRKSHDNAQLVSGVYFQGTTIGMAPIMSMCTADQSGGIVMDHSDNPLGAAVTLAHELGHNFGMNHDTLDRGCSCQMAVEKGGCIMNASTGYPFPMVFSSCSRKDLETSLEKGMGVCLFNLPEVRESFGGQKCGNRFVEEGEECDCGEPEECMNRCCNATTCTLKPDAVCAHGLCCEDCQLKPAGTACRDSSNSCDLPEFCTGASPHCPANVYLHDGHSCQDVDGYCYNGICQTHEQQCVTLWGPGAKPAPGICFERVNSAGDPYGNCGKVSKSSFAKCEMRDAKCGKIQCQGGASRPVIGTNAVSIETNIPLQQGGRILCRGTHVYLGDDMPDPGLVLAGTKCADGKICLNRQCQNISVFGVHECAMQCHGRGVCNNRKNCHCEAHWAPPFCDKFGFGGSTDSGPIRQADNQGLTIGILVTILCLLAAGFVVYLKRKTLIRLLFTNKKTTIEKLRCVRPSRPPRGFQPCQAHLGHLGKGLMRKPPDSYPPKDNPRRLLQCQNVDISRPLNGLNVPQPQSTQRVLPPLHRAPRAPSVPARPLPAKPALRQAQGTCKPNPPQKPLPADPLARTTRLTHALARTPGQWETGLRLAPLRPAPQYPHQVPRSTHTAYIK
# [2] = biological target: T2, Disintegrin and metalloproteinase domain-containing protein 10 (Homo sapiens, UniProt O14672); experiment: In vitro inhibition of A disintegrin and metalloprotease domain 10 (ADAM10)
# T2 sequence (O14672 whole entry): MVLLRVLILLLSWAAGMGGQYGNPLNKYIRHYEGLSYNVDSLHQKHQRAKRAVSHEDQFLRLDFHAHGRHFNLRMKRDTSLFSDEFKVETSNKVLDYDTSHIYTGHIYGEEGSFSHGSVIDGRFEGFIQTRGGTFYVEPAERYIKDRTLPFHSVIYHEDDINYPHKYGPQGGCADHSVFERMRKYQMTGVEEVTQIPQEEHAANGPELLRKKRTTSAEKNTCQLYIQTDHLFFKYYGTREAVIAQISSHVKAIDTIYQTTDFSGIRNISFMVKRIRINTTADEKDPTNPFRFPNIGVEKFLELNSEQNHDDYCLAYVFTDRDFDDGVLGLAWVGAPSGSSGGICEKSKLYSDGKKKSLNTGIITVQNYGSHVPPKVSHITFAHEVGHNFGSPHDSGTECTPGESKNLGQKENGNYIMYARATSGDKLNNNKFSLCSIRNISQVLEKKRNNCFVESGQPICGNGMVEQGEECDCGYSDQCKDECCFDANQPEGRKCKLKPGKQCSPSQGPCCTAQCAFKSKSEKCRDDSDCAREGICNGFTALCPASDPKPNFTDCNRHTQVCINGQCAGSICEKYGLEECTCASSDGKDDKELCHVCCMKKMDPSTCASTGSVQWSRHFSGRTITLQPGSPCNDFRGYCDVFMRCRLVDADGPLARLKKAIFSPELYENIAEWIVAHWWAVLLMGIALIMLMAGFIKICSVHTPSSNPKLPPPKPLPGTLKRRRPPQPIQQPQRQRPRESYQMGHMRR
# [3] = biological target: Disintegrin and metalloproteinase domain-containing protein 17 (Homo sapiens, UniProt P78536); experiment: In vitro inhibition of A disintegrin and metalloprotease domain 17 (ADAM17, TACE)
# [4] = biological target: T3, Disintegrin and metalloproteinase domain-containing protein 9 (Homo sapiens, UniProt Q13443); experiment: In vitro inhibition of A disintegrin and metalloprotease domain 9 (ADAM9)
# T3 sequence (Q13443 whole entry): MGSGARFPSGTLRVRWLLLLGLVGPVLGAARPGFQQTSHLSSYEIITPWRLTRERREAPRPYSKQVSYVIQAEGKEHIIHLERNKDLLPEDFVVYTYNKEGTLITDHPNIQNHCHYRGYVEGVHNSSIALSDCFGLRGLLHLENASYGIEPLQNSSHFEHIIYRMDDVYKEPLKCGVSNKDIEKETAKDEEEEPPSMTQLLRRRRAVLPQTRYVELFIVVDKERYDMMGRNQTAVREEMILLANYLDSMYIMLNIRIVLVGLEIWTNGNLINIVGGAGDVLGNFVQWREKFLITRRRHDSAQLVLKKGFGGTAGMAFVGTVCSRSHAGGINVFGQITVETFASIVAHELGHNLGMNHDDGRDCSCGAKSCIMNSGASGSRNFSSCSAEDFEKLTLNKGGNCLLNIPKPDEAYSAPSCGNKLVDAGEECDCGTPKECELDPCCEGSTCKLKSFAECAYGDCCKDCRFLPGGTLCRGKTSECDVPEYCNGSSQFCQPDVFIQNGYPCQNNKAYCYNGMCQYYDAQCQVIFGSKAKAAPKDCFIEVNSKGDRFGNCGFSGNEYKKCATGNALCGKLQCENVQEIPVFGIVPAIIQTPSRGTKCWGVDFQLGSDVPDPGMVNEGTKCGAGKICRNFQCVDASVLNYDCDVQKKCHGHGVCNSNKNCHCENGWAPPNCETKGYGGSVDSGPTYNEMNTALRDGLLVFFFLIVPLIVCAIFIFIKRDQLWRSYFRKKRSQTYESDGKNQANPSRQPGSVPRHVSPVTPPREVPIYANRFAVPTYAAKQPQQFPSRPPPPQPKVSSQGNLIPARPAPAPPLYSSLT
# Disintegrin and metalloproteinase domain-containing protein 17, sequence (P78536 whole entry, the tested form may be a part): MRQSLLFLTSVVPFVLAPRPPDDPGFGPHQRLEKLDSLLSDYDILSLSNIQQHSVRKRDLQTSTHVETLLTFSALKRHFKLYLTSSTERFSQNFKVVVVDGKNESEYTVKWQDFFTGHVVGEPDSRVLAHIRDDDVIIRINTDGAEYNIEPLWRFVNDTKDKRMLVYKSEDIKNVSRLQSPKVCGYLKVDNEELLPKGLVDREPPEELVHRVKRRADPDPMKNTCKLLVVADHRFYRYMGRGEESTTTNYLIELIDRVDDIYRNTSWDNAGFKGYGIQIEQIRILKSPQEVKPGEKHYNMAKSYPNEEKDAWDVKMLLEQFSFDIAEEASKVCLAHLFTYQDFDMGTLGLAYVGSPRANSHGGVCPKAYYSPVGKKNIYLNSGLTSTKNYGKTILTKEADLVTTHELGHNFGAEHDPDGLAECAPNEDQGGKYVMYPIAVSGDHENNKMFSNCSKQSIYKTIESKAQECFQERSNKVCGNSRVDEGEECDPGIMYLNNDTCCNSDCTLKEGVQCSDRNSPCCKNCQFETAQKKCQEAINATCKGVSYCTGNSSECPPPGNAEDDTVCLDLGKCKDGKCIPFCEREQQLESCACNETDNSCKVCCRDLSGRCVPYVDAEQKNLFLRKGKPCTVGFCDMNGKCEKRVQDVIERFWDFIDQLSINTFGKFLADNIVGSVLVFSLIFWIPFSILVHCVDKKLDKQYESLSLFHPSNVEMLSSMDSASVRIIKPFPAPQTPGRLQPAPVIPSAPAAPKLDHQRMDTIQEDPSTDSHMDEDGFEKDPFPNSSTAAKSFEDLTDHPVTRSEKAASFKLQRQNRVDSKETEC
Structure (SMILES),IC50 [1] [nM],IC50 [2] [nM],IC50 [3] [nM],IC50 [4] [nM]
CC(C)C(NC(=O)/C(=C\c1ccccc1F)NC(=O)c1ccccc1)C(=O)O (stereo unspecified),40.5,> 10500,,
CC(NC(=O)/C(=C\c1ccc(Br)cc1)NC(=O)c1ccc(Br)o1)C(=O)O (stereo unspecified),24.8,,,
CC(NC(=O)/C(=C\c1ccco1)NC(=O)c1ccco1)C(=O)O (stereo unspecified),42.3,10500,,

# Molecules with a lower IC50 [1], results first:
IC50 [1] [nM],IC50 [2] [nM],IC50 [3] [nM],IC50 [4] [nM],Structure (SMILES)
16.7,> 10500,,,O=C(O)CNC(=O)/C(=C\c1cccc(Br)c1)NC(=O)c1ccco1
5.93,8.1,7.5,1,CNC(=O)[C@H](Cc1c[nH]c2ccccc12)NC(=O)[C@@H](CC(=O)NO)CC(C)C [ILOMASTAT]
